What all share (type): cell-based, human
Data set [1] has as its system peripheral blood mononuclear cells derived from a cancer patient. Nature of the data set: CTL induction by peptide from autologous PBMC of cancer patient, IFN-γ production on recognition of target cells (Example 5). The conditions noted are these: for IFN-γ production from peripheral blood mononuclear cells in recognition of target cells: PBMC stimulated with 10 μM peptide. An excerpt:
Among the peptides that were able to enhance IFN-γ production from the OK-CTLp or OK-CTL clone in Example 4, those from P1 to P19 were examined for their ability to induce CTL from peripheral blood mononuclear cells derived from a cancer patient. The method for inducing CTL by a peptide was according to the well-known method (J. Exp. Med., 187:277-288, 1998; Cancer Res., 59:4056-4063, 1999.) Specifically, autologous peripheral blood mononuclear cells (PBMC) derived from a cancer patient, from whom OK-CTLp was obtained, were incubated together with the peptide (10 μM.) The cells were re-stimulated at day 10 and 14 after the start of culturing, using autologous PBMCs as an antigen presenting cell (APC) which were pulsed with 10 μM of the same peptide for 2 h and exposed to irradiation (30 gray.) At day 21 after the start of culturing, the cells were collected to test for surface phenotype. In addition, the cells were examined for the recognition of various target cells, using IFN-γ production measured by ELISA when they were cultured together with the target cells as an indicator. As a target cells, SW620 cell, CA9-22 cell, and Panc-1 cell, which are the HLA-A2^+ tumor cells, were used.

Data set [2] shares this test system. The description is as above. Conditions: PBMC stimulated with 10 μM peptide.
The subject of data set [3] is OK-CTL clone. Nature of the data set: IFN-γ production by OK-CTL clones cultured with COS-7 cells cotransfected with cDNA clone and HLA-A0207 cDNA. The arrangement: unit not given here. How it is done:
Since CTL activated by recognizing the tumor antigen is a population of cells recognizing plural kinds of tumor antigens, the above-described OK-CTLp was subjected to cloning by limiting dilution culture (0.3, 0.5, 1, 2, and 4 cells/well) to obtain an OK-CTL clone (J. Immunol., 163:4994-5004, 1999. ) These clones are those having CTL activity selected by culturing them together with COS-7 cells into which 100 ng/well of any one of the above-described seven cDNA clones and 100 ng/well of HLA-A0207 cDNA were cotransfected, or with the tumor cells, in a cell ratio of 1:1, and measuring IFN-γ production. Specifically, three hundred CTL clones were obtained from the parent line OK-CTLp by a limiting dilution culture. Eighty CTL clones among them had HLA-A2-restricted tumor-specific CTL activity and expressed the phenotype of CD3^+ CD4^− CD8^+ and TCR αβ^+.

Setting [4] is: CTL clone 0.5-1-D6, cDNA with HLA-A0207 cDNA in COS-7.
The mark [5] stands for this setting: CTL clone 0.5-1-D7, cDNA with HLA-A0207 cDNA in COS-7.
Setting [6] is: CTL clone 0.5-1-H2, cDNA with HLA-A0207 cDNA in COS-7.
[7] abbreviates: CTL clone 0.5-1-H12, cDNA with HLA-A0207 cDNA in COS-7.
Where [8] appears, read: CTL clone 0.5-2-A4, cDNA with HLA-A0207 cDNA in COS-7.
The mark [9] stands for this setting: CTL clone 1-2-D1, cDNA with HLA-A0207 cDNA in COS-7.
Where [10] appears, read: CTL clone 1-2-D7, cDNA with HLA-A0207 cDNA in COS-7.
Setting [11] is: CTL clone 1-2-D12, cDNA with HLA-A0207 cDNA in COS-7.
Where [12] appears, read: CTL clone 2-1-F4, cDNA with HLA-A0207 cDNA in COS-7.
Setting [13] is: CTL clone 2-1-H12, cDNA with HLA-A0207 cDNA in COS-7.
The mark [14] stands for this setting: CTL clone 2-2-B4, cDNA with HLA-A0207 cDNA in COS-7.
[15] abbreviates: CTL clone 2-2-H3, cDNA 100 ng/well with HLA-A0207 cDNA in COS-7.
Where [16] appears, read: CTL clone 4-1-H8, cDNA with HLA-A0207 cDNA in COS-7.
[17] abbreviates: CTL clone 4-2-A11, cDNA with HLA-A0207 cDNA in COS-7.
The mark [18] stands for this setting: CTL clone 4-2-B3, cDNA with HLA-A0207 cDNA in COS-7.

In the case of “ALVEFEDVL (Designed peptide having an ability to activate HLA-A2 restricted Cytotoxic T lymphocytes) [Peptide P6, Gene 2 (HNRPL) 140-148]”, the “Recognition of tumor cells by PBMC stimulated in vitro with peptide (IFN-γ production)” value in data set [1] (SW620, CA9-22 and Panc-1 HLA-A2+ tumor cells, result in words) was “produced IFN-γ in a significant amount”. Also, the “IFN-γ production from peripheral blood mononuclear cells in recognition of target cells” value in data set [1] (target CA9-22 (HLA-A0207/24)) is 863 pg/mL; in data set [1] (target Panc-1 (HLA-A0201/11)) it was 527 pg/mL; in data set [1] (target SW620 (HLA-A0201/24)), 344 pg/mL; in data set [2] (target COLO320 (HLA-A24/24)) it was 40 pg/mL; in data set [2] (target QG56 (HLA-A26/26)) it was 0 pg/mL; in data set [2] (target RERF-LC-MS (HLA-A11/11)), 8 pg/mL.
Regarding “clone 6: cDNA clone from Panc-1, 6707 bp [AB044545], homology with 2-5 OAS3”, the “IFN-γ production by CTL clone” value is 13 in data set [3] (setting [4]); 110 in data set [3] (setting [5]); 0 in data set [3] (setting [6]); 0 in data set [3] (setting [7]); 113 in data set [3] (setting [8]); 61 in data set [3] (setting [9]). The “IFN-γ production by CTL clone” value in data set [3] (setting [10]) is 0; in data set [3] (setting [11]), 0; in data set [3] (setting [12]) it was 0; in data set [3] (setting [13]), 0; in data set [3] (setting [14]) it was more than 1000; in data set [3] (setting [15]), 0. For the same molecule, the “IFN-γ production by CTL clone” value in data set [3] (setting [16]), in data set [3] (setting [17]) and in data set [3] (setting [18]) was 0 each time.
For the molecule “clone 1: cDNA clone from Panc-1, 1775 bp [AB044550], high homology with UBE2V”, the “IFN-γ production by CTL clone” value in data set [3] (setting [4]) is 19; in data set [3] (setting [5]), 27; in data set [3] (setting [6]), 0; in data set [3] (setting [7]), 0; in data set [3] (setting [8]), 0; in data set [3] (setting [9]), 21. Further, the “IFN-γ production by CTL clone” value in data set [3] (setting [10]) worked out at 0; in data set [3] (setting [11]) it was 0; in data set [3] (setting [12]) it was 0; in data set [3] (setting [13]) it was 134; in data set [3] (setting [14]), 0; in data set [3] (setting [15]), 110. Moreover, the “IFN-γ production by CTL clone” value in data set [3] (setting [16]), in data set [3] (setting [17]) and in data set [3] (setting [18]) was 0 throughout.
As to “clone 2: cDNA clone from Panc-1, 2097 bp [AB044547], high homology with HNRPL”, the “IFN-γ production by CTL clone” value was 0 in data set [3] (setting [4]); 34 in data set [3] (setting [5]); 0 in data set [3] (setting [6]); 0 in data set [3] (setting [7]); 0 in data set [3] (setting [8]); 0 in data set [3] (setting [9]). For the same molecule, the “IFN-γ production by CTL clone” value is listed as 200 in data set [3] (setting [10]); more than 1000 in data set [3] (setting [11]); 0 in data set [3] (setting [12]); 0 in data set [3] (setting [13]); 0 in data set [3] (setting [14]); 0 in data set [3] (setting [15]). The “IFN-γ production by CTL clone” value in data set [3] (setting [16]) is 133; in data set [3] (setting [17]), 0; in data set [3] (setting [18]) it was 0.
“Clone 5: cDNA clone from Panc-1, 2404 bp [AB044546], homology with ppMAPkkk”: the “IFN-γ production by CTL clone” value came to 0 in data set [3] (setting [4]); 0 in data set [3] (setting [5]); 81 in data set [3] (setting [6]); 0 in data set [3] (setting [7]); 0 in data set [3] (setting [8]); 0 in data set [3] (setting [9]). The “IFN-γ production by CTL clone” value in data set [3] (setting [10]) is recorded as 0; in data set [3] (setting [11]), 0; in data set [3] (setting [12]), more than 1000; in data set [3] (setting [13]) it was 0; in data set [3] (setting [14]) it was 0; in data set [3] (setting [15]), 0. Besides, the “IFN-γ production by CTL clone” value in data set [3] (setting [16]), in data set [3] (setting [17]) and in data set [3] (setting [18]) was 0 each time.
Regarding “clone 3: cDNA clone from Panc-1, 2243 bp [AB044549], high homology with WHSC2”, the “IFN-γ production by CTL clone” value in data set [3] (setting [4]) is 0; in data set [3] (setting [5]), 0; in data set [3] (setting [6]), 0; in data set [3] (setting [7]) it was 0; in data set [3] (setting [8]) it was 0; in data set [3] (setting [9]), 22. For the same molecule, the “IFN-γ production by CTL clone” value in data set [3] (setting [10]), in data set [3] (setting [11]), in data set [3] (setting [12]), in data set [3] (setting [13]), in data set [3] (setting [14]) and in data set [3] (setting [15]) was 0 throughout. In addition, the “IFN-γ production by CTL clone” value in data set [3] (setting [16]) was found to be 0; in data set [3] (setting [17]), 100; in data set [3] (setting [18]), 0.

B1: clone 4: cDNA clone from Panc-1, 831 bp [AB044548], high homology with EIF4EBP1 (nucleic acid, listed as Homo sapiens)
DNA: GCGGGAGGGCAGCGAGAGGTTCGCGGGTGCAGCGCACAGGAGACCATGTCCGGGGGCAGCAGCTGCAGCCAGACCCCAAGCCGGGCCATCCCCGCCACTCGCCGGGTGGTGCTCGGCGACGGCGTGCAGCTCCCGCCCGGGGACTACAGCACGACCCCCGGCGGCACGCTCTTCAGCACCACCCCGGGAGGTACCAGGATCATCTATGACCGGAAATTCCTGATGGAGTGTCGGAACTCACCTGTGACCAAAACACCCCCAAGGGATCTGCCCACCATTCCGGGGGTCACCAGCCCTTCCAGTGATGAGCCCCCCATGGAAGCCAGCCAGAGCCACCTGCGCAATAGCCCAGAAGATAAGCGGGCGGGCGGTGAAGAGTCACAGTTTGAGATGGACATTTAAAGCACCAGCCATCGTGTGGAGCACTACCAAGGGGCCCCTCAGGGCCTTCCTGGGAGGAGTCCCACCAGCCAGGCCTTATGAAAGTGATCATACTGGGCAGGCGTTGGCGTGGGGTCGGACACCCCAGCCCTTTCTCCCTCACTCAGGGCACCTGCCCCCTCCTCTTCGTGAACACCAGCAGATACCTCCTTGTGCCTCCACTGATGCAGGAGCTGCCACCCCAAGGGGAGTGACCCCTGCCAGCACACCCTGCAGCCAAGGGCCAGGAAGTGGACAAGAACGAACCCTTCCTTCCGAATGATCAGCAGTTCCAGCCCCTCGCTGCTGGGGGCGCAACCACCCCTTCCTTAGGTTGATGTGCTTGGGAAAGCTCCCTCCCCCTCCTTCCCCAAGAGAGGAAATAAAAGCCACCTTCGCCCTAGGGCCAAG
modifications: polyA_site (831)..(831)
Take B1: the “IFN-γ production by CTL clone” value in data set [3] (setting [4]) is 118; in data set [3] (setting [5]), 0; in data set [3] (setting [6]), 0; in data set [3] (setting [7]), more than 1000; in data set [3] (setting [8]), 0; in data set [3] (setting [9]), 44. Further, the “IFN-γ production by CTL clone” value in data set [3] (setting [10]), in data set [3] (setting [11]), in data set [3] (setting [12]), in data set [3] (setting [13]), in data set [3] (setting [14]) and in data set [3] (setting [15]) was 0 in each case. Also, the results for the “IFN-γ production by CTL clone” value in data set [3] (setting [16]), in data set [3] (setting [17]) and in data set [3] (setting [18]) were 0, 0 and 95, respectively.
